The record followed here is patent US10287301B2 (Achillion Pharmaceuticals, Inc., priority 2015, dated 2019).

The target of this experiment is Human Factor D (Homo sapiens (Human), UniProt P00746). Briefly: Human Factor D Assay. The note with it: Human Factor D 80 nM, substrate Z-L-Lys-SBzl; read-out: IC50. The experiment is classed as biochemical. In short, it runs like this: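 Factor D (from human serum) 80 nM final + cpd, 5 min RT, 50 mM Tris/1M NaCl pH 7.5; add Z-L-Lys-SBzl 100 μM and DTNB 100 μM final. IC50 by nonlinear fit of rates vs [cpd].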
Sequence of Human Factor D (P00746 26-253): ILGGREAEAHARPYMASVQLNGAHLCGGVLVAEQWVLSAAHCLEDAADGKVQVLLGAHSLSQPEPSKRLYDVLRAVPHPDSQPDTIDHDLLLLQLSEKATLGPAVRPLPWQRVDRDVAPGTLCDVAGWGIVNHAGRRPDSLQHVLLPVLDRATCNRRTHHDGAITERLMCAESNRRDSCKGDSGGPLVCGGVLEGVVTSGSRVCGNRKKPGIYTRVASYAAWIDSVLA
In general, IC50 refers to the concentration that gives 50% inhibition. Regarding `CC(=O)c1cn(CC(=O)N2C[C@H](F)C[C@H]2C(=O)Nc2cncc(Cl)n2)c2ccc(-c3ccnnc3)cc12` [Compound 88, (2S,4R)-1-(2-(3-acetyl-5-(pyridazin-4-yl)-1H-indol-1-yl)acetyl)-N-(6-chloropyrazin-2-yl)-4-fluoropyrrolidine-2-carboxamide], the IC50 is under 1 µM.
Take `NC(=O)c1nn(CC(=O)N2C[C@H](F)C[C@H]2C(=O)Nc2cncc(Cl)n2)c2ccc(-c3ccnnc3)cc12` [Compound 89, 1-(2-((2S,4R)-2-(6-chloropyrazin-2-ylcarbamoyl)-4-fluoropyrrolidin-1-yl)-2-oxoethyl)-5-(pyridazin-4-yl)-1H-indazole-3-carboxamide]: the IC50 is under 1 µM.
For `NC(=O)c1nn(CC(=O)N2C[C@H](F)C[C@H]2C(=O)Nc2ccc(F)c(-c3nnc4n3CCCCC4)c2)c2ccc(-c3ccnnc3)cc12` [Compound 91, 1-(2-((2S,4R)-4-fluoro-2-(4-fluoro-3-(6,7,8,9-tetrahydro-5H-[1,2,4]triazolo[4,3-a]azepin-3-yl)phenylcarbamoyl)pyrrolidin-1-yl)-2-oxoethyl)-5-(pyridazin-4-yl)-1H-indazole-3-carboxamide] the value was over 10 µM.
In the case of `CC(=O)c1cn(CC(=O)N2C[C@H](F)C[C@H]2C(=O)Nc2ccc(F)c(-c3nnc4n3CCCCC4)c2)c2ccc(-c3ccnnc3)cc12` [Compound 92, (2S,4R)-1-(2-(3-acetyl-5-(pyridazin-4-yl)-1H-indol-1-yl)acetyl)-4-fluoro-N-(4-fluoro-3-(6,7,8,9-tetrahydro-5H-[1,2,4]triazolo[4,3-a]azepin-3-yl)phenyl) pyrrolidine-2-carboxamide] it was under 1 µM.
For `NC(=O)c1nn(CC(=O)N2C[C@H](F)C[C@H]2C(=O)Nc2cccc(Cl)c2C(F)(F)F)c2ccc(-c3ccnnc3)cc12` [Compound 93, 1-(2-((2S,4R)-2-(3-chloro-2-(trifluoromethyl)phenylcarbamoyl)-4-fluoropyrrolidin-1-yl)-2-oxoethyl)-5-(pyridazin-4-yl)-1H-indazole-3-carboxamide] the value was over 10 µM.
With `NC(=O)c1nn(CC(=O)N2C[C@H](F)C[C@H]2C(=O)Nc2c[nH]nc2-c2ccc(Cl)cc2Cl)c2ccc(-c3ccnnc3)cc12` [Compound 94, 1-(2-((2S,4R)-2-(3-(2,4-dichlorophenyl)-1H-pyrazol-4-ylcarbamoyl)-4-fluoropyrrolidin-1-yl)-2-oxoethyl)-5-(pyridazin-4-yl)-1H-indazole-3-carboxamide], the half-inhibitory concentration (IC50) is over 10 µM.
On to `CC(=O)c1cn(CC(=O)N2C[C@H](F)C[C@H]2C(=O)Nc2cccc(Cl)c2-n2cncn2)c2ccc(-c3ccnnc3)cc12` [Compound 95, (2S,4R)-1-(2-(3-acetyl-5-(pyridazin-4-yl)-1H-indol-1-yl)acetyl)-N-(3-chloro-2-(1H-1,2,4-triazol-1-yl)phenyl)-4-fluoropyrrolidine-2-carboxamide], for which the IC50 is over 10 µM.
In the case of `NC(=O)c1nn(CC(=O)N2C[C@H](F)C[C@H]2C(=O)Nc2cccc(Cl)c2-n2cncn2)c2ccc(-c3ccnnc3)cc12` [Compound 96, 1-(2-((2S,4R)-2-(3-chloro-2-(1H-1,2,4-triazol-1-yl)phenylcarbamoyl)-4-fluoropyrrolidin-1-yl)-2-oxoethyl)-5-(pyridazin-4-yl)-1H-indazole-3-carboxamide] it was over 10 µM.
With `CC(=O)c1cn(CC(=O)N2C[C@H](F)C[C@H]2C(=O)Nc2cc(C)nc3nc(C(F)(F)F)nn23)c2ccc(-c3ccnnc3)cc12` [Compound 97, (2S,4R)-1-(2-(3-acetyl-5-(pyridazin-4-yl)-1H-indol-1-yl)acetyl)-4-fluoro-N-(5-methyl-2-(trifluoromethyl)-[1,2,4]triazolo[1,5-a]pyrimidin-7-yl)pyrrolidine-2-carboxamide], the IC50 was over 10 µM.
For `Cn1cnnc1-c1ccccc1NC(=O)[C@@H]1C[C@@H](F)CN1C(=O)Cn1nc(C(N)=O)c2cc(-c3ccnnc3)ccc21` [Compound 98, 1-(2-((2S,4R)-4-fluoro-2-(2-(4-methyl-4H-1,2,4-triazol-3-yl)phenylcarbamoyl)pyrrolidin-1-yl)-2-oxoethyl)-5-(pyridazin-4-yl)-1H-indazole-3-carboxamide] the value was over 10 µM; for `CC(=O)c1cn(CC(=O)N2C[C@H](F)C[C@H]2C(=O)Nc2nc(-c3ccccc3Cl)ns2)c2ccc(-c3ccnnc3)cc12` [Compound 99, (2S,4R)-1-(2-(3-acetyl-5-(pyridazin-4-yl)-1H-indol-1-yl)acetyl)-N-(3-(2-chlorophenyl)-1,2,4-thiadiazol-5-yl)-4-fluoropyrrolidine-2-carboxamide], under 1 µM.
In the case of `CC(=O)c1cn(CC(=O)N2C[C@H](F)C[C@H]2C(=O)Nc2cccc(Br)n2)c2ccc(-c3ccccc3Cl)cc12` [Compound 100, (2S,4R)-1-(2-(3-acetyl-5-(2-chlorophenyl)-1H-indol-1-yl)acetyl)-N-(6-bromopyridin-2-yl)-4-fluoropyrrolidine-2-carboxamide] it was under 1 µM; in that of `Cc1ncc(-c2ccc3c(c2)c(C(N)=O)nn3CC(=O)N2C[C@H](F)C[C@H]2C(=O)Nc2cccc(Br)n2)cn1` [Compound 101, 1-(2-((2S,4R)-2-(6-bromopyridin-2-ylcarbamoyl)-4-fluoropyrrolidin-1-yl)-2-oxoethyl)-5-(2-methylpyrimidin-5-yl)-1H-indazole-3-carboxamide], under 1 µM.
For `CC(=O)c1cn(CC(=O)N2C[C@H](F)C[C@H]2C(=O)Nc2cccc(-c3ccccc3Cl)c2F)c2ccc(-c3cnc(C)nc3)cc12` [Compound 102, (2S,4R)-1-(2-(3-acetyl-5-(2-methylpyrimidin-5-yl)-1H-indol-1-yl)acetyl)-N-(2′-chloro-2-fluorobiphenyl-3-yl)-4-fluoropyrrolidine-2-carboxamide] the value was under 1 µM; for `Cc1ncc(-c2ccc3c(c2)c(C(N)=O)nn3CC(=O)N2C[C@H](F)C[C@H]2C(=O)Nc2cccc(-c3ccccc3Cl)c2F)cn1` [Compound 103], under 1 µM; for `NC(=O)c1nn(CC(=O)N2C[C@H](F)C[C@H]2C(=O)Nc2cccc3c2CN(c2ccccn2)C3)c2ccc(-c3ccnnc3)cc12` [Compound 104, 1-(2-((2S,4R)-4-fluoro-2-(2-(pyridin-2-yl)isoindolin-4-ylcarbamoyl)pyrrolidin-1-yl)-2-oxoethyl)-5-(pyridazin-4-yl)-1H-indazole-3-carboxamide], over 10 µM.
Take `CC(=O)c1cn(CC(=O)N2C[C@H](F)C[C@H]2C(=O)Nc2cccc3c2CN(c2ccccn2)C3)c2ccc(-c3ccnnc3)cc12` [Compound 105, (2S,4R)-1-(2-(3-acetyl-5-(pyridazin-4-yl)-1H-indol-1-yl)acetyl)-4-fluoro-N-(2-(pyridin-2-yl)isoindolin-4-yl)pyrrolidine-2-carboxamide]: the IC50 was over 10 µM.
For `CC(=O)c1cn(CC(=O)N2C[C@H](F)C[C@H]2C(=O)NC2CCCc3nc(-c4ccc(F)cc4)sc32)c2ccc(-c3ccnnc3)cc12` (stereo partly drawn) [Compound 106, (2S,4R)-1-(2-(3-acetyl-5-(pyridazin-4-yl)-1H-indol-1-yl)acetyl)-4-fluoro-N-(2-(4-fluorophenyl)-4,5,6,7-tetrahydrobenzo[d]thiazol-7-yl)pyrrolidine-2-carboxamide] the value was over 10 µM.
